This passage reports T/C results from PubChem BioAssay AID256 (DTP/NCI, 2004).

Several values for one entry are separate records, joined by “and”; a condition that tells them apart may be missing. Identical values can stand only once. Inconclusive results and toxic doses are left out.

For this assay, the system named is CD2F1 mice, L1210 leukemia ip, survival T/C. The assay can be described thus: NCI In Vivo Anticancer Drug Screen. Data for tumor model L1210 Leukemia (intraperitoneal) in CD2F1 (CDF1) mice. The note with it: higher = longer survival. Put shortly:
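Tumor-bearing mice (transplanted tumor) were split into treated and vehicle control groups, and the measured endpoint of each treated group was divided by that of its vehicle controls.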

The mark [1] stands for this setting: endpoint: mean survival time, dose: 25.0 mg/kg/injection, schedule: Q01DX009 (ip), vehicle: saline with Tween-80.
[2] abbreviates: endpoint: mean survival time, dose: 50.0 mg/kg/injection, schedule: Q01DX009 (ip), vehicle: saline with Tween-80.
Setting [3] is: endpoint: mean survival time, dose: 100.0 mg/kg/injection, schedule: Q01DX009 (ip), vehicle: saline with Tween-80.
The mark [4] stands for this setting: endpoint: mean survival time, dose: 200.0 mg/kg/injection, schedule: Q01DX009 (ip), vehicle: saline with Tween-80.
The mark [5] stands for this setting: endpoint: mean survival time, dose: 100.0 mg/kg/injection, schedule: Q04DX003 (ip), vehicle: saline with Tween-80.
Where [6] appears, read: endpoint: mean survival time, dose: 200.0 mg/kg/injection, schedule: Q04DX003 (ip), vehicle: saline with Tween-80.
[7] abbreviates: endpoint: mean survival time, dose: 100.0 mg/kg/injection, schedule: Q01DX001 (ip), vehicle: saline with Tween-80.
[8] abbreviates: endpoint: mean survival time, dose: 200.0 mg/kg/injection, schedule: Q01DX001 (ip), vehicle: saline with Tween-80.
The mark [9] stands for this setting: endpoint: mean survival time, dose: 400.0 mg/kg/injection, schedule: Q01DX001 (ip), vehicle: saline with Tween-80.
The mark [10] stands for this setting: endpoint: mean survival time, dose: 400.0 mg/kg/injection, schedule: Q04DX003 (ip), vehicle: saline with Tween-80.

Regarding `Nc1ccc2c(c1)C(=O)c1ccccc1C2=O`, the T/C is 98 % of control under setting [1]; 98 % of control under setting [2]; 101 % of control and 102 % of control under setting [3]; 102 % of control under setting [4]; 96 % of control (endpoint: mean survival time, dose: 400.0 mg/kg/injection, schedule: Q01DX009 (ip), vehicle: saline with Tween-80).

Regarding `Cn1cnc2c(SCc3ccccc3)ncnc21`, the T/C reads like this: under setting [5], 104 % of control; (endpoint: mean survival time, dose: 132.0 mg/kg/injection, schedule: Q04DX003 (ip), vehicle: saline with Tween-80) 118 % of control; under setting [6], 102 % of control; (endpoint: mean survival time, dose: 300.0 mg/kg/injection, schedule: Q04DX003 (ip), vehicle: saline with Tween-80) 119 % of control.

Regarding `COc1cc2c(cc1OC)C[N+]1(C)CCc3cc(OC)c(OC)cc3C1C2` (stereo not given), the T/C is, setting by setting: (endpoint: mean survival time, dose: 5.0 mg/kg/injection, schedule: Q01DX001 (ip), vehicle: saline) 97 % of control; (endpoint: mean survival time, dose: 10.0 mg/kg/injection, schedule: Q01DX001 (ip), vehicle: saline) 93 % of control; (endpoint: mean survival time, dose: 20.0 mg/kg/injection, schedule: Q01DX001 (ip), vehicle: saline) 103 % of control; (endpoint: mean survival time, dose: 40.0 mg/kg/injection, schedule: Q01DX001 (ip), vehicle: saline) 97 % of control.

With `CCN(CC)CCN(C)C(=O)C(O)(c1ccccc1)c1ccccc1`, the T/C (endpoint: mean survival time, dose: 75.0 mg/kg/injection, schedule: Q01DX001 (ip), vehicle: saline) is 100 % of control; the T/C (endpoint: mean survival time, dose: 150.0 mg/kg/injection, schedule: Q01DX001 (ip), vehicle: saline) is 103 % of control; the T/C (endpoint: mean survival time, dose: 300.0 mg/kg/injection, schedule: Q01DX001 (ip), vehicle: saline) was 102 % of control.

In the case of `COc1cc(C(C)(C)C)cc(OC)c1C(O)(c1c(OC)cc(C(C)(C)C)cc1OC)c1c(OC)cc(C(C)(C)C)cc1OC`, the T/C (endpoint: mean survival time, dose: 6.25 mg/kg/injection, schedule: Q01DX009 (ip), vehicle: saline with Tween-80) is 100 % of control; the T/C (endpoint: mean survival time, dose: 12.5 mg/kg/injection, schedule: Q01DX009 (ip), vehicle: saline with Tween-80) is 104 % of control; the T/C under setting [1] is 104 % of control; the T/C under setting [2] was 102 % of control; the T/C under setting [3] is 105 % of control; the T/C under setting [4] is 88 % of control.

For the compound `COc1ccccc1[As](=O)(O)CC(O)COc1ccccc1` (stereo not given), the T/C reads like this: (endpoint: mean survival time, dose: 6.25 mg/kg/injection, schedule: Q04DX003 (ip), vehicle: saline with Tween-80) 103 % of control; (endpoint: mean survival time, dose: 12.5 mg/kg/injection, schedule: Q04DX003 (ip), vehicle: saline with Tween-80) 104 % of control; (endpoint: mean survival time, dose: 25.0 mg/kg/injection, schedule: Q04DX003 (ip), vehicle: saline with Tween-80) 113 % of control.

In the case of `CC1=CC(=O)C(C(=O)CC(O)(C(F)(F)F)C(F)(F)F)C(=O)O1` (stereo not given), the T/C was 98 % of control under setting [7], 104 % of control under setting [8] and 95 % of control under setting [9].

In the case of `CC(=O)N(C)O`, the T/C (endpoint: median survival time, dose: 12.5 mg/kg/injection, schedule: Q01DX009 (ip), vehicle: saline with Tween-80) is 102 % of control; the T/C (endpoint: median survival time, dose: 25.0 mg/kg/injection, schedule: Q01DX009 (ip), vehicle: saline with Tween-80) is 102 % of control and 103 % of control; the T/C (endpoint: median survival time, dose: 50.0 mg/kg/injection, schedule: Q01DX009 (ip), vehicle: saline with Tween-80) was 102 % of control and 103 % of control; the T/C (endpoint: median survival time, dose: 100.0 mg/kg/injection, schedule: Q01DX009 (ip), vehicle: saline with Tween-80) was 106 % of control; the T/C (endpoint: median survival time, dose: 200.0 mg/kg/injection, schedule: Q01DX009 (ip), vehicle: saline with Tween-80) was 156 % of control; the T/C (endpoint: median survival time, dose: 400.0 mg/kg/injection, schedule: Q01DX009 (ip), vehicle: saline with Tween-80) was 176 % of control.

On to `Cc1ccc(C)c(NC(=O)NC2CCCCC2)c1`, for which the T/C is, setting by setting: under setting [7], 98 % of control; under setting [8], 101 % of control; under setting [9], 101 % of control.

On to `CCn1c(C)nc2cc(C(N)=O)ccc21`, for which the T/C by setting is: under setting [3], 97 % of control; under setting [5], 100 % of control; under setting [4], 91 % of control; under setting [6], 96 % of control; under setting [10], 102 % of control.

Turning to `N#CC(CC(=O)c1ccc(-c2ccccc2)cc1)c1ccccc1` (stereo not given), the T/C was 91 % of control under setting [5], 91 % of control under setting [6] and 95 % of control under setting [10].

As for `O=C(NCCCl)NC1CCSc2ccccc21` (stereo not given), the T/C runs as follows: under setting [2], 95 % of control; under setting [3], 91 % of control; under setting [4], 91 % of control.

On to `CN(C)c1ccc2c(Nc3ccc(NS(C)(=O)=O)cc3)c3ccc(N(C)C)cc3nc2c1`, for which the T/C is 170 % of control (endpoint: median survival time, dose: 50.0 mg/kg/injection, schedule: Q01DX009 (ip), vehicle: Klucel (hydroxypropylcellulose) (HPC)); 151 % of control and 193 % of control (endpoint: median survival time, dose: 100.0 mg/kg/injection, schedule: Q01DX009 (ip), vehicle: Klucel (hydroxypropylcellulose) (HPC)); 164 % of control and 174 % of control (endpoint: median survival time, dose: 200.0 mg/kg/injection, schedule: Q01DX009 (ip), vehicle: Klucel (hydroxypropylcellulose) (HPC)).

Turning to `O=C(NO)c1cc(Br)cc(Br)c1O`, the T/C is 96 % of control (endpoint: mean survival time, dose: 100.0 mg/kg/injection, schedule: Q04DX002 (ip), vehicle: saline with Tween-80); 92 % of control (endpoint: mean survival time, dose: 200.0 mg/kg/injection, schedule: Q04DX002 (ip), vehicle: saline with Tween-80); 103 % of control (endpoint: mean survival time, dose: 400.0 mg/kg/injection, schedule: Q04DX002 (ip), vehicle: saline with Tween-80).

As to `Cc1[nH]c(=O)c(C(=O)O)c(C)c1[N+](=O)[O-]`, the T/C is 96 % of control under setting [5], 94 % of control under setting [6] and 96 % of control under setting [10].

`CC(=N\N)/C(C)=N/N`: under setting [5], the T/C was 105 % of control.

In the case of `CS(=O)(=O)OCCN(CCOS(C)(=O)=O)c1ccc(C=Nc2ccc(-c3csc(COc4ccccc4)n3)cc2)cc1`, the T/C (endpoint: mean survival time, dose: 12.5 mg/kg/injection, schedule: Q01DX009 (ip), vehicle: Klucel (hydroxypropylcellulose) (HPC)) was 119 % of control; the T/C (endpoint: mean survival time, dose: 25.0 mg/kg/injection, schedule: Q01DX009 (ip), vehicle: Klucel (hydroxypropylcellulose) (HPC)) was 110 % of control; the T/C (endpoint: mean survival time, dose: 50.0 mg/kg/injection, schedule: Q01DX009 (ip), vehicle: Klucel (hydroxypropylcellulose) (HPC)) was 112 % of control; the T/C (endpoint: mean survival time, dose: 100.0 mg/kg/injection, schedule: Q01DX009 (ip), vehicle: Klucel (hydroxypropylcellulose) (HPC)) was 115 % of control; the T/C (endpoint: mean survival time, dose: 200.0 mg/kg/injection, schedule: Q01DX009 (ip), vehicle: Klucel (hydroxypropylcellulose) (HPC)) is 120 % of control; the T/C (endpoint: mean survival time, dose: 400.0 mg/kg/injection, schedule: Q01DX008 (ip), vehicle: Klucel (hydroxypropylcellulose) (HPC)) was 150 % of control. The T/C (endpoint: mean survival time, dose: 400.0 mg/kg/injection, schedule: Q01DX009 (ip), vehicle: Klucel (hydroxypropylcellulose) (HPC)) was 106 % of control and 107 % of control.
